Data as given in US20230002408A1, “HETEROARYLDIHYDROPYRIMIDINE DERIVATIVES AND METHODS OF TREATING HEPATITIS B INFECTIONS” (JANSSEN PHARMACEUTICA NV, priority 2019, published 2023).
Read-outs that look alike come from different tables or passages of the source.

How the values were obtained:
Assay type in all cases: cell-based
[1] = system: HBV; experiment: Anti-viral assay in HepG2.2.15 cells: HBV DNA in culture medium by qPCR
Experimental: (§1) HepG2.2.15 (the HepG2.2.15 cell line can be produced by transfection of the HepG2 cell line as described in Sells, Chen, and Acs 1987 (Proc. Natl. Acad. Sci. USA 84: 1005-1009), and the HepG2 cell line is available from ATCC® under number HB-8065™).
(§2) HepG2.2.15 cells were plated into 96-well plate in 2% FBS culture medium at the density of 40,000 cells/well and 5,000 cells/well for HBV inhibitory activity and cytotoxicity determination, respectively. After incubation at 37° C., 5% CO2 overnight, cells were treated with medium containing compounds for 6 days with medium and compounds refreshed after 3 days of treatment. Each compound was tested in a 1:3 serial dilutions at 8 different concentrations in triplicate. The highest concentration of the compounds was 10 uM or 1 uM for anti-HBV activity assay and 100 uM for cytotoxicity determination. Cell viability was determined by CCK-8 assay. After 6 days of compounds treatment, 20 μl CCK-8 reagents were added to each well of cytotoxicity assay plates. Cell plates were incubated at 37° C., 5% CO2 for 2.5 h. The absorbance at 450 nm wavelength and the absorbance at 630 nm wavelength as reference was measured.
The change of HBV DNA level induced by the compounds was assessed by quantitative real-time polymerase chain reaction (qPCR). Briefly, the HBV DNA in the culture medium was extracted using QlAamp 96 DNA Blood Kit according to the manual and then quantified by real-time PCR assay using the primers and probe in the table 1 below.
(§3) EC50 and CC50 values are calculated by the GRAPHPAD PRISM software.

[2] = system: HepG2.2.15 cells; experiment: Cytotoxicity determination in HepG2.2.15 cells (CCK-8 cell viability); settings: 6 days treatment, CCK-8, highest concentration 100 uM
Experimental: as §1, §2, §3

[3] = as above; settings: human, 6 days treatment, CCK-8, highest concentration 100 uM
Experimental: as §1, §2, §3

[4] = HepG2.2.15 cells, 6 days treatment, HBV DNA in culture medium by real-time PCR, read-out: EC50
[5] = Hepatitis B virus, HepG2.2.15, 144 h, HepG2.2.15 cells, 6 days treatment, HBV DNA in culture medium by real-time PCR, read-out: EC50

## CCOC(=O)C1=C(CN2CCO[C@H]3CN(CC(C)(C)C(=O)O)C[C@H]32)NC(c2nccs2)=N[C@H]1c1ccc(F)cc1Cl (relative stereo) [Compound I-1A, 3-((4aR*,7aS*)-4-4(R*)-6-(2-chloro-4-fluorophenyl)-5-(ethoxycarbonyl)-2-(thiazol-2-yl)-3,6-dihydropyrimidin-4-yl)methyl)hexahydropyrrolo[3,4-b][1,4]oxazin-6(2H)-yl)-2,2-dimethylpropanoic acid]
[1]; [4]
  EC50: 0.016 µM
[2]
  CC50: 59.8 µM

## CCOC(=O)C1=C(CN2CCO[C@H]3CN(CC(C)(C)C(=O)O)C(=O)[C@H]32)NC(c2nccs2)=N[C@H]1c1ccc(F)cc1Cl (relative stereo) [Compound I-20A, 3-((4aS*,7aS*)-4-4(R*)-6-(2-chloro-4-fluorophenyl)-5-(ethoxycarbonyl)-2-(thiazol-2-yl)-3,6-dihydropyrimidin-4-yl)methyl)-5-oxohexahydropyrrolo[3,4-b][1,4]oxazin-6(2H)-yl)-2,2-dimethylpropanoic acid]
[1]; [4]
  EC50: 0.001 µM
[2]
  CC50: 55 µM

## COC(=O)C1=C(CN2CCO[C@H]3CN(CC(C)(C)C(=O)O)C(=O)[C@H]32)NC(c2nccs2)=N[C@H]1c1cccc(F)c1C (single isomer, unassigned) [Compound I-19A, 3-((4aS*,7aS*)-4-4(S*)-6-(3-fluoro-2-methylphenyl)-5-(methoxycarbonyl)-2-(thiazol-2-yl)-3,6-dihydropyrimidin-4-yl)methyl)-5-oxohexahydropyrrolo[3,4-b][1,4]oxazin-6(2H)-yl)-2,2-dimethylpropanoic acid]
[1]; [5]
  EC50: 0.028 µM
[3]
  CC50 at 6 days: 59.1 µM

## COC(=O)C1=C(CN2CCO[C@H]3CN(CC(C)(C)C(=O)O)C(=O)[C@H]32)NC(c2nccs2)=N[C@H]1c1cccc(F)c1Cl (single isomer, unassigned) [Compound I-21A, 3-((4aS*,7aS*)-4-4(R*)-6-(2-chloro-3-fluorophenyl)-5-(methoxycarbonyl)-2-(thiazol-2-yl)-3,6-dihydropyrimidin-4-yl)methyl)-5-oxohexahydropyrrolo[3,4-b][1,4]oxazin-6(2H)-yl)-2,2-dimethylpropanoic acid]
[1]; [5]
  EC50: 0.008 µM
[3]
  CC50 at 6 days: > 100 µM

## COC(=O)C1=C(CN2CCO[C@H]3CN(CC(C)(C)C(=O)O)C(=O)[C@H]32)NC(c2nccs2)=N[C@H]1c1ccc(F)c(F)c1Cl (single isomer, unassigned) [Compound I-22A, 3-((4aS*,7aS*)-4-4(R*)-6-(2-chloro-3,4-difluorophenyl)-5-(methoxycarbonyl)-2-(thiazol-2-yl)-3,6-dihydropyrimidin-4-yl)methyl)-5-oxohexahydropyrrolo[3,4-b][1,4]oxazin-6(2H)-yl)-2,2-dimethylpropanoic acid]
[1]; [5]
  EC50: 0.0005 µM
[3]
  CC50 at 6 days: 44.3 µM

## CCOC(=O)C1=C(CN2CCO[C@H]3CN(CC(C)(C)C(=O)O)C(=O)[C@H]32)NC(c2nccs2)=N[C@H]1c1ccc(F)c(F)c1Cl (single isomer, unassigned) [Compound I-23A, 3-((4aS*,7aS*)-4-4(R*)-6-(2-chloro-3,4-difluorophenyl)-5-(ethoxycarbonyl)-2-(thiazol-2-yl)-3,6-dihydropyrimidin-4-yl)methyl)-5-oxohexahydropyrrolo[3,4-b][1,4]oxazin-6(2H)-yl)-2,2-dimethylpropanoic acid]
[1]; [5]
  EC50: 0.0005 µM
[3]
  CC50 at 6 days: 45 µM

## COC(=O)C1=C(CN2CCO[C@H]3CN(CC(C)(C)C(=O)O)C(=O)[C@H]32)NC(c2nccs2)=N[C@H]1c1cccc(F)c1Cl (single isomer, unassigned) [Compound I-24A, 3-((4aS*,7aS*)-4-4(R*)-6-(2-chloro-3-fluorophenyl)-5-(methoxycarbonyl)-2-(thiazol-2-yl)-3,6-dihydropyrimidin-4-yl)methyl)-5-oxohexahydropyrrolo[3,4-b][1,4]oxazin-6(2H)-yl)-2,2-dimethylpropanoic acid]
[1]; [4]
  EC50: 0.014 µM
[2]
  CC50: > 100 µM

## COC(=O)C1=C(CN2CCO[C@@H]3CN(C(=O)OC(C)(C)C)C[C@H]32)NC(c2ncc(F)cc2F)=N[C@H]1c1ccc(F)cc1Cl (single isomer, unassigned) [Reference 1A, (4aR*,7aR*)-tert-butyl 4-(((R*)-6-(2-chloro-4-fluorophenyl)-2-(3,5-difluoropyridin-2-yl)-5-(methoxycarbonyl)-3,6-dihydropyrimidin-4-yl)methyl)hexahydropyrrolo[3,4-b][1,4]oxazine-6(2H)-carboxylate, reference compound]
[1]; [5]
  EC50: > 1 µM
[3]
  CC50 at 6 days: 14 µM

## COC(=O)C1=C(CN2CCO[C@H]3CN(C(=O)OC(C)(C)C)C[C@@H]32)NC(c2ncc(F)cc2F)=N[C@H]1c1ccc(F)cc1Cl (single isomer, unassigned) [Reference 1B, (4aS*,7aS*)-tert-butyl 4-(((R*)-6-(2-chloro-4-fluorophenyl)-2-(3,5-difluoropyridin-2-yl)-5-(methoxycarbonyl)-3,6-dihydropyrimidin-4-yl)methyl)hexahydropyrrolo[3,4-b][1,4]oxazine-6(2H)-carboxylate, reference compound]
[1]; [5]
  EC50: > 1 µM
[3]
  CC50 at 6 days: 2.5 µM

## COC(=O)C1=C(CN2CCO[C@@H]3CN(C(=O)OC(C)(C)C)C[C@H]32)NC(c2ncc(F)cc2F)=N[C@@H]1c1ccc(F)cc1Cl (single isomer, unassigned) [Reference 1C, (4aR*,7aR*)-tert-butyl 4-4(S*)-6-(2-chloro-4-fluorophenyl)-2-(3,5-difluoropyridin-2-yl)-5-(methoxycarbonyl)-3,6-dihydropyrimidin-4-yl)methyl)hexahydropyrrolo[3,4-b][1,4]oxazine-6(2H)-carboxylate, reference compound]
[1]; [5]
  EC50: 0.677 µM
[3]
  CC50 at 6 days: 3.7 µM

## COC(=O)C1=C(CN2CCO[C@H]3CN(C(=O)OC(C)(C)C)C[C@@H]32)NC(c2ncc(F)cc2F)=N[C@@H]1c1ccc(F)cc1Cl (single isomer, unassigned) [Reference 1D, (4aS*,7aS*)-tert-butyl 4-4(S*)-6-(2-chloro-4-fluorophenyl)-2-(3,5-difluoropyridin-2-yl)-5-(methoxycarbonyl)-3,6-dihydropyrimidin-4-yl)methyl)hexahydropyrrolo[3,4-b][1,4]oxazine-6(2H)-carboxylate, reference compound]
[1]; [5]
  EC50: 0.812 µM
[3]
  CC50 at 6 days: 5.6 µM

## COC(=O)C1=C(CN2CCO[C@H]3CN(C(=O)OC(C)(C)C)C[C@H]32)NC(c2ncc(F)cc2F)=N[C@H]1c1ccc(F)cc1Cl (single isomer, unassigned) [Reference 1E, tert-butyl (4aR*,7aS*)-4-4(R*)-6-(2-chloro-4-fluorophenyl)-2-(3,5-difluoropyridin-2-yl)-5-(methoxycarbonyl)-3,6-dihydropyrimidin-4-yl)methyl)hexahydropyrrolo[3,4-b][1,4]oxazine-6(2H)-carboxylate, reference compound]
[1]; [5]
  EC50: > 1 µM
[3]
  CC50 at 6 days: 11.7 µM

## COC(=O)C1=C(CN2CCO[C@H]3CN(C(=O)OC(C)(C)C)C[C@H]32)NC(c2ncc(F)cc2F)=N[C@@H]1c1ccc(F)cc1Cl (single isomer, unassigned) [Reference 1F, tert-butyl (4aR*,7aS*)-4-4(S*)-6-(2-chloro-4-fluorophenyl)-2-(3,5-difluoropyridin-2-yl)-5-(methoxycarbonyl)-3,6-dihydropyrimidin-4-yl)methyphexahydropyrrolo[3,4-b][1,4]oxazine-6(2H)-carboxylate, reference compound]
[1]; [5]
  EC50: 0.087 µM
[3]
  CC50 at 6 days: 5.8 µM

## COC(=O)C1=C(CN2CCO[C@@H]3CN(C(=O)OC(C)(C)C)C[C@@H]32)NC(c2ncc(F)cc2F)=N[C@H]1c1ccc(F)cc1Cl (single isomer, unassigned) [Reference 1G, (4aS*,7aR*)-tert-butyl 4-(((R*)-6-(2-chloro-4-fluorophenyl)-2-(3,5-difluoropyridin-2-yl)-5-(methoxycarbonyl)-3,6-dihydropyrimidin-4-yl)methyl)hexahydropyrrolo[3,4-b][1,4]oxazine-6(2H)-carboxylate, reference compound]
[1]; [5]
  EC50: > 1 µM
[3]
  CC50 at 6 days: 14.5 µM

## COC(=O)C1=C(CN2CCO[C@@H]3CN(C(=O)OC(C)(C)C)C[C@@H]32)NC(c2ncc(F)cc2F)=N[C@@H]1c1ccc(F)cc1Cl (single isomer, unassigned) [Reference 1H, (4aS*,7aR*)-tert-butyl 4-(((S*)-6-(2-chloro-4-fluorophenyl)-2-(3,5-difluoropyridin-2-yl)-5-(methoxycarbonyl)-3,6-dihydropyrimidin-4-yl)methyl)hexahydropyrrolo[3,4-b][1,4]oxazine-6(2H)-carboxylate, reference compound]
[1]; [5]
  EC50: > 1 µM
[3]
  CC50 at 6 days: 8.7 µM

## CCOC(=O)C1=C(CN2CCO[C@@H]3CN(C4CCC(C(=O)O)C4)C[C@@H]32)NC(c2nccs2)=N[C@H]1c1cccc(F)c1C (some centres unmarked) [Compound I-5]
[1]; Hepatitis B virus, HepG2.2.15, 144 h
  EC50: 0.086 µM
[3]
  CC50 at 6 days: 40.6 µM
